Source: patent US20110034419A1, “Cardioprotective Drugs and Diagnostics for Assessing Risk of Cardiovascular Disease” (priority 2009, published 2011)

What was measured:
dermal fibroblasts = conditions: literature (Bu et al., 2006); cited from earlier work
[1] = system: endothelial cell monolayers (HUVECs); experiment: Electrical Cell Substrate Impedance Sensing (ECIS) assay of transendothelial electrical resistance (TEER); assay type: cell-based, human; conditions: for Inhibition of the TEER response to HDL / Inhibition of the TEER response to S1P: PTX 1 μg/ml, antagonists 10 μM; for Inhibition of the TEER response to HDL: HDL 1000 or 621 μg/ml; for Inhibition of the TEER response to S1P: S1P 833 nM or 250 nM
Method: Confluent endothelial monolayers were grown under serum-free conditions until a minimal TEER plateau had been reached. The cells were then incubated with S1P or HDL in the presence or absence of PTX (A and B) or S1P1 antagonists (C and D). In A and B, S1P was used at 833 nM, HDL at 1000 μg/ml (containing 400 nM S1P) and PTX at 1 μg/ml. In C and D, S1P was used at 250 nM, HDL at 621 μg/ml (containing 250 nM S1P), the S1P1 antagonist 857390 at 10 μM and the S1P1/S1P3 antagonist VPC23019 at 10 μM. As controls, monolayers were treated with BSA-containing serum free medium (SFM) plus or minus vehicle buffer. Each of the TEER tracings shown is an average of two replicate wells and representative of three independent experiments. Impedance values were normalized by dividing each value by the level of impedance measured just prior to the addition of effectors. […]
ECIS: Electrical cell substrate impedance sensing (ECIS) assays will be conducted essentially as described in (1). Briefly, 8W10E+ electrode arrays will be pre-coated with human fibronectin (Invitrogen, Carlsbad, Calif.) at 100 μg/ml in 0.15M NaCl, 0.01M Tris, pH 8.0. HUVECs in EGM-2 medium will be seeded into the wells at a density of 1×10^5 cells per well. Electrical resistance (impedance) will be measured every […] at a frequency of 15 kHz. For every 48 h of culture, 50% volume of medium will be replaced with fresh EGM-2. When the electrical resistance reaches a maximal plateau (−3 days) the medium will be replaced with serum-free endothelial basal medium (EBM; Lonza) containing 1× penicillin-streptomycin-glutamine (Invitrogen). Electrical resistance will be monitored until a minimal plateau is reached (˜24 h). Either HDL from CCHS subjects (depleted of albumin and apoB lipoproteins) or synthetic HDLs will be introduced into the culture medium by removing a volume corresponding to that of the HDL to be added. The maximum volume of each HDL added will not exceed 1/25 of the 400 μl volume of conditioned culture medium in each well. For experiments evaluating the effects of pertussis toxin (PTX), PTX (100 ng/ml) or the PTX buffer (50% glycerol with 50 mM Tris, 10 mM glycine, and 0.5M NaCl, pH 7.5) will be added to EBM during the final 12 h of serum starvation. S1P or HDL will then be added to the medium. Electrical resistance will be monitored through 5 h post addition of agents.

[2] = system: Erk1/2 activation in HUVECs; experiment: Multiplex bead array assay of Erk1/2 phosphorylation; assay type: cell-based, human; conditions: for Inhibition of HDL-induced activation of Erk1/2 / Inhibition of S1P-induced activation of Erk1/2: PTX 100 ng/ml 12 h, 3 min; for Inhibition of HDL-induced activation of Erk1/2: antagonists added 15 min before HDL (containing 200 nM S1P); for Inhibition of S1P-induced activation of Erk1/2: antagonists added 15 min before S1P (200 nM)
Method: (§1) The effect of S1P and HDL on activation of Erk1/2 (A-D) and Akt (E-H) in HUVECs was determined by multiplex bead array assay. In A-D, the values for the fold difference in Erk1/2 phosphorylation were derived from the level of phosphoErk1/2 fluorescence in S1P or HDL treated cells divided by the level of phosphoErk1/2 fluorescence in control cells. In E-G, the values for the fold increase in Akt phosphorylation were derived from the level of phosphoAkt fluorescence in cells treated with S1P or HDL divided by the level of phosphoAkt fluorescence measured in control cells. The data depicted in panels A, C, E and G is based on treating HUVECs for the indicated times with 833 nM S1P or 333 μg/ml HDL (containing 133 nM S1P). The data depicted in panels B, D, F and H is based on treating HUVECs with indicated concentrations of S1P or HDL for 3 min. The level of S1P in the 3-fold dilutions of HDL tested in panel H ranged from 12-337 nM. Data are shown from a representative experiment.
(§2) In A and B, pertussis toxin (PTX, 100 ng/ml) or the PTX buffer was added to endothelial cell basal medium (EBM) during the final 12 h of serum starvation. BSA, S1P (200 nM) or HDL (containing 200 nM S1P) were then added to the medium and allowed to incubate with the cells for 3 min. In C and D, the S1P1 antagonist 857390 or the S1P1/S1P3 antagonist or vehicle were added to the medium 15 min prior to addition of S1P or HDL and allowed to incubate with the cells for 3 min. The graphed values were derived from the level of phosphoErk1/2 or phosphoAkt fluorescence in S1P- or HDL-treated cells divided by the level of phosphoErk1/2 or phosphoAkt fluorescence in BSA treated cells. Data are shown from representative experiments, antagonists and inhibitor experiments were performed 2-4 times (e.g. PTX, n=3; S1P1 antagonist, n=4; S1P1/S1P3 antagonist, n=2). Each data point is an average from two independent wells.
(§3) Approach: A bead-based multiplex assay will be used to determine changes in phosphorylated Erk1/2, phosphorylated Akt, and total Erk and total Akt in endothelial cells in response to treatments with HDLs from dislipidemic subjects and synthetic HDLs containing defined amounts of S1P. These assays will be conducted essentially as described by (1). Briefly, HUVECs will be seeded into 24 well dishes (Corning) at 2×10^5 cells per well and grown for 18 h in endothelial growth medium-2 (EGM-2, Lonza). The medium will then be replaced with endothelial basal medium (EBM) containing 0.1% FBS and the cells grown for 24 h. The medium will then be supplemented with HDL samples (i.e., CCHS subject serum-derived HDL freed of albumin- and apoB-containing lipoproteins) or synthetic HDLs (containing defined amounts of S1P). As described above, this will be done by removing a volume of the conditioned culture medium corresponding to that of the HDL to be added. The cells will be extracted with Bio-Plex cell lysis buffer (Bio-Rad, Hercules, Calif.) and protein concentration determined by Bio-Rad DC Protein Assay (Bio-Rad). Levels of phospho-Erk1/2, total-Erk1/2 and phospho-Akt in the extracts will be determined by multiplex bead assay using kits (Bio-Rad) and a Bioplex-200 instrument (Bio-Rad).

[3] = system: endothelial cell monolayers (HUVECs); conditions: literature (Schaphorst et al.; Xu et al.); cited from earlier work
lung capillary leakage = conditions: mice, lipopolysaccharide treatment; literature (Peng et al.); cited from earlier work
Akt activation in HUVECs = experiment: Multiplex bead array assay of Akt phosphorylation; assay type: cell-based, human; conditions: PTX 100 ng/ml 12 h, 3 min; for Inhibition of HDL-induced activation of Akt: antagonists added 15 min before HDL (containing 200 nM S1P); for Inhibition of S1P-induced activation of Akt: antagonists added 15 min before S1P (200 nM)
Method: as §1, §2
as §3, with “The medium will then be replaced with endothelial basal medium (EBM) containing 0.1% FBS and the cells grown for 24 h. The medium will then be supplemented with HDL samples (i.e., CCHS subject serum-derived HDL freed of albumin- and apoB-containing lipoproteins) or synthetic HDLs (containing defined amounts of S1P). As described above, this will be done by removing a volume of the conditioned culture medium corresponding to that of the HDL to be added.” left out

Row | Compound | Activation of ERK1/2 in dermal fibroblasts (dermal fibroblasts) | Induction of MMP1 expression in dermal fibroblasts (dermal fibroblasts) | Effect on transendothelial electrical resistance (TEER) ([1]; confluent endothelial monolayers in serum free medium, substance added alone) | Effect on Erk1/2 phosphorylation ([2]; 833 nM S1P or 333 μg/ml HDL, time course) | Dose dependence of Erk1/2 activation response ([2]; 3 min treatment) | Effect on endothelial barrier activity (TEER) in cultured endothelial cells [3] | Effect on lung capillary leakage (lung capillary leakage) | Inhibition of the TEER response to HDL [1] | Inhibition of the TEER response to S1P [1] | Inhibition of HDL-induced activation of Erk1/2 [2] | Inhibition of S1P-induced activation of Erk1/2 [2] | Inhibition of HDL-induced activation of Akt (Akt activation in HUVECs) | Inhibition of S1P-induced activation of Akt (Akt activation in HUVECs)
1 | CCCCCCCCCCCCCCC[C@@H](O)[C@@H](N)COP(=O)(O)O [DH-S1P, dihydro-S1P] | mediate activation ERK1/2 | induction of matrix metalloproteinase 1 (MMP1) expression | – | – | – | – | – | – | – | – | – | – | –
2 | CCCCCCCCCCCCC/C=C/[C@@H](O)[C@@H](N)COP(=O)(O)O [S1P, sphingosine 1-phosphate] | not reproduced | not reproduced | dose-dependent increase in TEER | transient increase in Erk1/2 phosphorylation | dose dependent | increase endothelial barrier activity | greatly reduces lung capillary leakage | – | – | – | – | – | –
3 | CCCCCCCCc1cccc(NC(=O)[C@H](N)COP(=O)(O)O)c1 [VPC23019] | – | – | – | – | – | – | – | inhibited | inhibited | inhibited | inhibited | inhibited | inhibited
4 | pertussis toxin [PTX] | – | – | – | – | – | – | – | completely abrogated | inhibited | inhibited | inhibited | inhibited | inhibited
